What was measured:
[1] = test system: MC 903-induced atopic dermatitis (AD)-like inflammation; test: Calcipotriol (MC 903)-induced atopic dermatitis-like inflammation of mouse ears; format: in vivo, Balb/C mouse; conditions: for MC 903-induced ear skin inflammation, histological analysis: H&E, vs control; for expression of the TSLP lymphokine in MC 903-treated mouse epidermis (immunohistochemistry): data not shown; for MC 903-induced transcription of pro-inflammatory genes (MMP13, COX2, IL-1β, IL-6, IL-10, IL-13 and TSLP): ear extracts, q-RT-PCR, D23; for MC 903-induced skin inflammation: topical 1 nmole/cm^2, 8 days co-treatment with MC 903
Description: To investigate the CpdX anti-inflammatory activity in vivo, Balb/C mouse ears were topically treated with calcipotriol (MC 903, a vitamin D3 analogue), in order to induce an atopic dermatitis (AD)-like inflammation (Li et al., 2006. Proc Natl Acad Sci USA. 103(31):11736-41).
Mice were treated for 14 days with MC 903, and then for 8 extra days (until D22) with either MC 903 alone (control), MC 903 and Dex, MC 903 and CpdX, MC 903 and CpdX(eA), MC 903 and CpdX(eB), MC 903 and CpdX-D3, MC 903 and CpdX-D3(eA) and MC 903 and CpdX-D3(eB).
At D23, RNA transcripts were extracted from mouse ear skin samples and the transcripts of 7 cytokines (MMP13, COX2, IL-1β, IL-6, IL-10, IL-13 and TSLP) were analyzed by q-RT-PCR. Ear skin was harvested and histological (with H&E staining) and immunohistochemical (with anti-TSLP antibodies) analyses were carried out.

[2] = test system: dorsal skin of Balb/C mice; test: Skin epidermis atrophy after 8-day topical treatment of dorsal skin; format: in vivo; conditions: eight-day topical treatment
Excerpt: To investigate whether, similarly to Dex, a topical administration of CpdX could result in a skin atrophy, Balb/C mice were shaved on the dorsal skin. Ethanol (vehicle), Dex, CpdX or either one of its two enantiomers CpdX(eA) or CpdX(eB), as well as the deuterated form CpdX-D3 or either one of its two enantiomers CpdX-D3(eA) or CpdX-D3(eB), were topically applied onto the dorsal skin for 8 days.
Upon completion of the treatments, RNA transcripts were extracted from dorsal skin samples and the transcripts of Kindlin-1 and REDD1 genes were analyzed by q-RT-PCR. Histological and morphometric analyses of the dorsal skin were also performed.

[3] = test system: liver; test: Fatty liver after three-month treatment (red oil staining, q-RT-PCR, plasma cholesterol and bile acids); format: in vivo, B6 male mice; conditions: s.c. 1 mg/kg daily, three months
Description: B6 male mice (8-week-old) were daily subjected for three months to a subcutaneous injection of either vehicle (NaCl 0.9%), Dex, CpdX, CpdX(eA), CpdX(eB), CpdX-D3, CpdX-D3(eA) or CpdX-D3(eB) (1 mg/kg body weight, diluted in vehicle). Following this treatment, blood was collected at 10 a.m. by retro-orbital puncture in lithium-heparin coated vials. The plasmatic levels of total cholesterol and bile acids were determined.
Liver samples were harvested. […] RNA transcripts were extracted from liver samples and the transcripts of fatty acid synthase (FASN) and Stearoyl-CoA desaturase 1 (SCD1) genes were analyzed by q-RT-PCR.

[4] = test system: TPA-induced irritant contact dermatitis-like inflammation; test: TPA-induced irritant contact dermatitis-like inflammation of mouse ears; format: in vivo, Balb/C mouse; conditions: for TPA-induced ear skin inflammation, histological analysis: H&E, vs control; for TPA-induced ear skin inflammation, histological analysis / expression of TSLP in TPA-treated mouse epidermis (immunochemistry): data not shown; for expression of TSLP in TPA-treated mouse epidermis (immunochemistry): TSLP-specific antibody; for TPA-induced transcription of pro-inflammatory genes (CCL4, COX2, MMP13, IL-1β, IL-6, TNF-α, TSLP, IL-22, IL-23): ear extracts, q-RT-PCR, D10; for TPA-induced skin inflammation: topical 1 nmole/cm^2, 5 days co-treatment with TPA
Description: Balb/C mouse ears were topically treated with TPA to induce an “irritant contact dermatitis-like inflammation”. Mice were treated for 4 days with TPA, then for 5 extra days (until D9) with either vehicle, TPA alone, TPA and Dex, TPA and CpdX or TPA and CpdX-D3. At D10, RNA transcripts were extracted from mouse ear skin samples and the transcripts of CCL4, COX2, MMP13, IL-1β, IL-6, TNF-α, TSLP, IL-22 and IL-23 were analyzed by q-RT-PCR. Ear skin was harvested, and histological (with H&E staining) and immunohistochemical (with anti-TSLP antibodies) analyses were carried out.

[5] = test system: Aldara-induced psoriasis-like skin inflammation; test: Aldara-induced psoriasis-like skin inflammation of mouse ears; format: in vivo, Balb/C mouse; conditions: for Aldara-induced psoriasis-like skin inflammation, histological analyses: H&E staining; for induced expression of the Th17 cytokines IL-17a, IL-17c, IL-17f and IL-22: ear extracts, q-RT-PCR, D10; for Aldara-induced psoriasis-like skin inflammation: topical 1 nmole/cm^2, last 5 days of 9 days Aldara
Description: Balb/C mouse ears were topically treated with Aldara® to induce a psoriasis-like skin inflammation ([…] et al., 2015. Br J Dermatol. 172(2):345-53). Mice were treated for 9 days with Aldara®, including a co-topical treatment for the last 5 days with either ethanol (Vehicle), Dex, CpdX or CpdX-D3. At D10, RNA transcripts were extracted from mouse ears and IL-17a, IL-17c, IL-17f and IL-22 transcripts were analyzed by q-RT-PCR. Ear skin samples were also harvested for histological analyses (with H&E staining).

[6] = Body weight and body composition after three-month treatment (pDEXA); format: in vivo, B6 male mice; conditions: s.c. 1 mg/kg daily, 3 months, pDEXA
Description: B6 male mice (8-week-old) were daily subjected for three months to a subcutaneous injection of either vehicle (NaCl 0.9%), Dex, CpdX or CpdX-D3 (1 mg/kg body weight, diluted in vehicle. A pDEXA machine was used to determine the lean mass and fat mass. The statistical significance was calculated through Krustal-Walis test followed by a Dunn's multiple comparison test, *p<0.05; **p<0.01; ***p<0.001.

[7] = test system: collagen-induced Th17 rheumatoid arthritis-like inflammation; test: Collagen-induced arthritis (CIA); format: in vivo, mice (DBA-1 strain); conditions: for hind paw thickness at the ankle level: i.p. 1 mg/kg daily for 10 days (T0 to T10); for RNA transcripts of pro-inflammatory genes in hind paws (IL-1β, IL-6, IL-17a, IL-17f, TNFα): i.p. 1 mg/kg daily, T10, q-RT-PCR
Description: Mice were treated with collagen to induce a Th17 rheumatoid arthritis-like inflammation as described by Inglis et al. (2007. Arthritis Res Ther. 9(5):R113) and Geboes et al. (2009. Arthritis Rheum. 60(2):390-5).
Male mice (DBA-1 strain) were subcutaneously-injected with 100 μg collagen per mouse on D0. The hind paw thickness at the ankle level was regularly measured with a caliper. When the ankle thickness had reached around 4 mm (T0, i.e., 30 to 50 days after the collagen injection on D0), mice were daily intraperitoneally-injected for 10 days (T0 to T10) with either vehicle (NaCl 0.9%), Dex, CpdX, CpdX(eA), CpdX(eB), CpdX-D3, CpdX-D3(eA) or CpdX-D3(eB) (1 mg/kg body weight diluted in NaCl 0.9%), and the hind paw thickness at the ankle level was daily measured with a caliper. Pictures of the hind paws were taken at days T0 and T10 (before and after the treatment with either Vehicle, Dex, CpdX, CpdX(eA), CpdX(eB), CpdX-D3, CpdX-D3(eA) or CpdX-D3(eB)), in order to assess the course of swelling.
RNA transcripts were extracted from whole hind paws of collagen-untreated and collagen-treated mice at T0 and T10. IL-1β, IL-6, IL-17a, IL-17f and TNFα transcripts were analyzed by q-RT-PCR.

[2H]C([2H])([2H])Oc1ccc(F)cc1C(C)(C)CC(O)(CNc1ccc2c(c1)COC2=O)C(F)(F)F (racemic) [CpdX-D3, 5-{4-[2-(methoxy-D3)-5-fluorophenyl]-2-hydroxy-4-methyl-2-(trifluoromethyl)pentylamino}isobenzofuran-1(3H)-one]
MC 903-induced ear skin inflammation, histological analysis [1]: decreased | expression of the TSLP lymphokine in MC 903-treated mouse epidermis (immunohistochemistry) [1]: similarly strongly decreased | MC 903-induced transcription of pro-inflammatory genes (MMP13, COX2, IL-1β, IL-6, IL-10, IL-13 and TSLP) [1]: repressed, as efficiently as Dex | MC 903-induced skin inflammation [1]: significantly decreased | epidermal thickness (morphometric analyses) [2]: not significantly decreased | lipid deposition in the liver (5% red oil staining) [3]: not observed | TPA-induced ear skin inflammation, histological analysis [4]: significantly decreased | expression of TSLP in TPA-treated mouse epidermis (immunochemistry) [4]: similarly strongly decreased | TPA-induced transcription of pro-inflammatory genes (CCL4, COX2, MMP13, IL-1β, IL-6, TNF-α, TSLP, IL-22, IL-23) [4]: repressed, as efficiently as Dex | TPA-induced skin inflammation [4]: significantly decreased | Aldara-induced psoriasis-like skin inflammation, histological analyses [5]: could reduce | induced expression of the Th17 cytokines IL-17a, IL-17c, IL-17f and IL-22 [5]: similarly reduced | Aldara-induced psoriasis-like skin inflammation [5]: significantly decreased | fat mass / fat percentage, change from baseline [6]: commensurate increase | lean mass / lean percentage, change from baseline [6]: commensurate increase | hind paw thickness at the ankle level [7]: rapid decrease | RNA transcripts of pro-inflammatory genes in hind paws (IL-1β, IL-6, IL-17a, IL-17f, TNFα) [7]: similarly repressed

COc1ccc(F)cc1C(C)(C)CC(O)(CNc1ccc2c(c1)COC2=O)C(F)(F)F (racemic) [CpdX, 5-[4-(5-fluoro-2-methoxyphenyl)-2-hydroxy-4-methyl-2-(trifluoromethyl)pentylamino]-isobenzofuran-1(3H)-one]
MC 903-induced ear skin inflammation, histological analysis [1]: decreased | expression of the TSLP lymphokine in MC 903-treated mouse epidermis (immunohistochemistry) [1]: similarly strongly decreased | MC 903-induced transcription of pro-inflammatory genes (MMP13, COX2, IL-1β, IL-6, IL-10, IL-13 and TSLP) [1]: repressed, as efficiently as Dex | MC 903-induced skin inflammation [1]: significantly decreased | epidermal thickness (morphometric analyses) [2]: not significantly decreased | lipid deposition in the liver (5% red oil staining) [3]: not observed | TPA-induced ear skin inflammation, histological analysis [4]: significantly decreased | expression of TSLP in TPA-treated mouse epidermis (immunochemistry) [4]: similarly strongly decreased | TPA-induced transcription of pro-inflammatory genes (CCL4, COX2, MMP13, IL-1β, IL-6, TNF-α, TSLP, IL-22, IL-23) [4]: repressed, as efficiently as Dex | TPA-induced skin inflammation [4]: significantly decreased | Aldara-induced psoriasis-like skin inflammation, histological analyses [5]: could reduce | induced expression of the Th17 cytokines IL-17a, IL-17c, IL-17f and IL-22 [5]: similarly reduced | Aldara-induced psoriasis-like skin inflammation [5]: significantly decreased | fat mass / fat percentage, change from baseline [6]: commensurate increase | lean mass / lean percentage, change from baseline [6]: commensurate increase | hind paw thickness at the ankle level [7]: rapid decrease | RNA transcripts of pro-inflammatory genes in hind paws (IL-1β, IL-6, IL-17a, IL-17f, TNFα) [7]: similarly repressed

[2H]C([2H])([2H])Oc1ccc(F)cc1C(C)(C)CC(O)(CNc1ccc2c(c1)COC2=O)C(F)(F)F (single isomer, unassigned; enantiomer a) [CpdX-D3(eA), 5-{4-[2-(methoxy-D3)-5-fluorophenyl]-2-hydroxy-4-methyl-2-(trifluoromethyl)pentylamino}isobenzofuran-1(3H)-one enantiomer A]
epidermal thickness (morphometric analyses) [2]: not significantly decreased | RNA transcripts of pro-inflammatory genes in hind paws (IL-1β, IL-6, IL-17a, IL-17f, TNFα) ([7]; 1 mg/kg): similarly repressed

COc1ccc(F)cc1C(C)(C)CC(O)(CNc1ccc2c(c1)COC2=O)C(F)(F)F (single isomer, unassigned; enantiomer a) [CpdX(eA), 5-[4-(5-fluoro-2-methoxyphenyl)-2-hydroxy-4-methyl-2-(trifluoromethyl)-pentylamino]isobenzofuran-1(3H)-one enantiomer A]
epidermal thickness (morphometric analyses) [2]: not significantly decreased | RNA transcripts of pro-inflammatory genes in hind paws (IL-1β, IL-6, IL-17a, IL-17f, TNFα) ([7]; 1 mg/kg): similarly repressed

— US11179363B2, “Non-steroidal selective glucocorticoid receptor agonistic modulators (SEGRAMs) and uses thereof” (ASSOCIATION POUR LA RECHERCHE À L'IGBMC (ARI), priority 2017, dated 2021)
